# Laboratory results reported in patent US20170368069A1, “USE OF 4-(4-FLUORO-2-METHOXYPHENYL)-N--1,3,5-TRIAZIN-2-AMINE FOR TREATING LEUKEMIAS” (Bayer Pharma Aktiengesellschaft, priority 2015, published 2017).
# Several values for one entry are separate records, joined by “and”; a condition that tells them apart may be missing. Equal values may be shown once. Entries after “also recorded” stand apart in the source; their conditions may differ.
# What was measured:
# HL-60 [1] = test: Proliferation assay, HL-60; assay type: cell-based; settings: Homo sapiens; HL-60, acute leukemia; after 72 hours of incubation with the substance
# MOLM-13 = test: Proliferation assay, MOLM-13; assay type: cell-based; settings: Homo sapiens; MOLM-13, acute myeloid leukemia, 11q23 positive; after 72 hours of incubation
# MV4-11 [2] = test: Proliferation assay, MV4-11; assay type: cell-based; settings: Homo sapiens; MV4-11, acute myeloid leukemia, 11q23 positive; after 72 hours of incubation
# NOMO-1 [3] = test: Proliferation assay, NOMO-1; assay type: cell-based; settings: Homo sapiens; NOMO-1, acute myeloid leukemia, 11q23 positive; after 72 hours of incubation
# KG-1 = test: Proliferation assay, KG-1; assay type: cell-based; settings: Homo sapiens; KG-1, acute myeloid leukemia; after 72 hours of incubation
# PL-21 = test: Proliferation assay, PL-21; assay type: cell-based; settings: PL-21, acute myeloid leukemia; after 72 hours of incubation
# OCI-AML-2 = test: Proliferation assay, OCI-AML-2; assay type: cell-based; settings: Homo sapiens, OCI-AML2; OCI-AML-2, acute myeloid leukemia; after 72 hours of incubation
# HL-60 [4] = test: Subcutaneous HL-60 leukemia xenograft, efficacy and tolerability; assay type: in vivo, NOD/SCID mice; settings: 25 mg/kg/day p.o.
# Description: (§1) The aim of the present experiments was to assess the in vivo efficacy and tolerability of Compound A′ in monotherapy in four leukemia models subcutaneously implanted in NOD/SCID mice.
# (§2) The experiments included four in vivo efficacy experiments with female NOD/SCID mice bearing subcutaneous leukemia xenografts. Compound A′ was assessed at one dose level in monotherapy. Anti-tumor activity and tolerability of all groups were assessed using the vehicle control group as a reference.
# (§3) Mouse strain, sex: NOD/SCID, female Animals supplied by: Harlan Total number of mice Efficacy test (implanted/randomized): 100/74 Approximate age at implantation: 5-7 weeks Approximate age at randomization: 6-9 weeks
# (§4) The tumor models used in this study were derived from commercially available cell lines.
# Leukemia cells were subcutaneously injected as cell suspensions into one flank of immunodeficient NOD/SCID mice under isofluorane anaesthesia (5*10^6 cells per injection). In the case of THP-1 cells, matrigel was used to increase implantation efficacy. […]
# (§5) At randomization, the volume of growing tumors was initially determined. […]
# (§6) Mice were weighed twice a week. Relative body weights of individual mice in % were calculated by dividing the individual body weight on day X (BWX) by the individual body weight on day 0 (BW0) multiplied by 100 according to the formula: […]
# (§7) Group median relative body weights were calculated as well, considering only the weights of mice that were alive on the day in question.
# (§8) The tumor volumes were determined by two-dimensional measurement with a caliper on the day of randomization (day 0) and then twice weekly (i.e. on the same days on which mice were weighed). Tumor volumes were calculated according to the formulas: […]
# (§9) Anti-tumor activity was evaluated as maximum tumor volume inhibition versus the vehicle control group. […]
# Tumor inhibition for a particular day (T/C in %) was calculated from the ratio of the median RTV values of test versus control groups multiplied by 100. […]
# MV4-11 [5] = test: Subcutaneous MV4-11 leukemia xenograft, efficacy and tolerability; assay type: in vivo, NOD/SCID mice
# Description: as §1, §2, §3, §4
# (§10) Leukemia cells were subcutaneously injected as cell suspensions into one flank of immunodeficient NOD/SCID mice under isofluorane anaesthesia (5*10^6 cells per injection). In the case of THP-1 cells, matrigel was used to increase implantation efficacy. For this, 1×10^8 leukemia cells were mixed with matrigel and an appropriate volume of the solution containing 5*10^6 cells was injected as described above.
# At randomization, the volume of growing tumors was initially determined. […] The result of the randomization was documented and maintained with the experimental data. Animals not randomized were euthanized. The day of randomization is designated as day 0 of an experiment. […]
# as §6, §7, §8, §9
# (§11) Tumor inhibition for a particular day (T/C in %) was calculated from the ratio of the median RTV values of test versus control groups multiplied by 100.
# The minimum (or optimum) T/C % value recorded for a particular test group during an experiment represents the maximum anti-tumor activity for the respective treatment. T/C values were calculated if at least 50% of the randomized animals in a group were alive on the day in question. […]
# NOMO-1 [6] = test: Subcutaneous NOMO-1 leukemia xenograft, efficacy and tolerability; assay type: in vivo, NOD/SCID mice
# Description: as §1, §2, §3, §4, §10
# (§12) At randomization, the volume of growing tumors was initially determined. […] The result of the randomization was documented and maintained with the experimental data. Animals not randomized were euthanized. The day of randomization is designated as day 0 of an experiment.
# (§13) Vehicle: 80% (m/V) PEG400 in water for injection Compound A′: preparation of a dosing solution (2.5 mg/ml) once weekly by diluting the Compound A′ powder at 0.25% (w/v) in vehicle; storage of the dosing solution at 4° C.; dosing volume 10 ml/kg
# as §6, §7, §8
# (§14) Anti-tumor activity was evaluated as maximum tumor volume inhibition versus the vehicle control group. Data evaluation was performed using Oncotest proprietary software.
# as §11
# (§15) The minimum (or optimum) T/C % value recorded for a particular test group during an experiment represents the maximum anti-tumor activity for the respective treatment. T/C values were calculated if at least 50% of the randomized animals in a group were alive on the day in question.
# (§16) Group optimum T/C values (in %) were used for activity rating as follows:
# (§17) All leukemia models were implanted by subcutaneous injection of the corresponding cell line into female NOD/SCID mice. Compound A′ was administered orally at one dose level (25 mg/kg/day) in monotherapy once daily and treatment started once subcutaneous tumors were established. A vehicle-treated control group was included in each experiment. […] Anti-tumor activity (tumor growth inhibition) and tolerability of all groups were assessed using the vehicle control group as a reference.
# THP-1 = test: Subcutaneous THP-1 leukemia xenograft, efficacy and tolerability; assay type: in vivo, NOD/SCID mice
# Description: as §1, §2, §3, §4, §10, §12, §13, §6, §7, §8, §14, §11, §15, §16, §17
# [7] = tested on: leukemia xenograft models MV4-11, NOMO-1, THP-1 and HL-60; test: Leukemia xenograft models, statements pooled over several models; assay type: in vivo; settings: leukemia xenografts bearing mice, 25 mg/kg/day p.o.
# Description: as §1, §2
# Mouse strain, sex: NOD/SCID, female Animals supplied by: Harlan Total number of mice Efficacy test (implanted/randomized): 100/74 Approximate age at implantation: 5-7 weeks Approximate age at randomization: 6-9 weeks […]
# as §5, §6, §7, §8
smiles,measurement,setting,value
"COc1cc(F)ccc1-c1ncnc(Nc2cccc(CS(C)(=N)=O)c2)n1 (single isomer, unassigned; (+)) [Compound A′, (+)-4-(4-Fluoro-2-methoxyphenyl)-N-{3-[(S-methylsulfonimidoyl)methyl]phenyl}-1,3,5-triazin-2-amine]",IC50,HL-60 [1],1120 nM
same,IC50,MOLM-13,320 nM
same,IC50,MV4-11 [2],386 nM
same,IC50,NOMO-1 [3],328 nM
same,IC50,KG-1,670 nM
same,IC50,PL-21,192 nM
same,IC50,OCI-AML-2,323 nM
same,Min. T/C,"HL-60 [4]; HL-60 xenograft (no 11q23 translocation), schedule days 0-6, 11-17, minimum on day 14, 25 mg/kg/day",63.9% and 63.9 (14) %
same,anti-tumor activity (in words),HL-60 [4]; HL-60 xenograft,borderline anti-tumor activity
same,Activity Rating,"HL-60 [4]; HL-60 xenograft, days 0-6, 11-17, rating from group optimum T/C",+/− (Borderline activity 50% ≦ T/C < 65%)
same,Min. T/C,"MV4-11 [5]; MV4-11 xenograft (11q23 translocation), 25 mg/kg/day p.o., days 0-25, minimum on day 14",11.9 (14) %
same,anti-tumor activity (in words),"MV4-11 [5]; MV4-11 xenograft, 25 mg/kg/day p.o.",High anti-tumor activity
same,Activity Rating,"MV4-11 [5]; MV4-11 xenograft, 25 mg/kg/day p.o., days 0-25, rating from group optimum T/C",++ (High activity 10% ≦ T/C < 25%)
same,Tumor growth versus vehicle control group,"MV4-11 [5]; MV4-11 xenograft, Mann-Whitney-Wilcoxon U-test",significantly reduced; also recorded: significantly attenuated
same,Min. T/C,"NOMO-1 [6]; NOMO-1 xenograft (11q23 translocation), 25 mg/kg/day p.o., days 0-25, minimum on day 14",19.7 (14) %
same,anti-tumor activity (in words),"NOMO-1 [6]; NOMO-1 xenograft, 25 mg/kg/day p.o.",High anti-tumor activity
same,Activity Rating,"NOMO-1 [6]; NOMO-1 xenograft, 25 mg/kg/day p.o., days 0-25, rating from group optimum T/C",++ (High activity 10% ≦ T/C < 25%)
same,group median BWL (body weight loss),"NOMO-1 [6]; NOMO-1 xenograft-bearing mice, 25 mg/kg/day p.o.",up to 0.4%
same,Tumor growth versus vehicle control group,"NOMO-1 [6]; NOMO-1 xenograft, Mann-Whitney-Wilcoxon U-test",significantly reduced; also recorded: significantly attenuated
same,Min. T/C,"THP-1; THP-1 xenograft (11q23 translocation), 25 mg/kg/day p.o., days 0-25, minimum on day 14",21.0 (14) %
same,anti-tumor activity (in words),"THP-1; THP-1 xenograft, 25 mg/kg/day p.o.",High anti-tumor activity
same,Activity Rating,"THP-1; THP-1 xenograft, 25 mg/kg/day p.o., days 0-25, rating from group optimum T/C",+ (Moderate activity 25% ≦ T/C < 50%)
same,group median BWL (body weight loss),"THP-1; THP-1 xenograft-bearing mice, 25 mg/kg/day p.o.",up to 0.4%
same,Tumor growth versus vehicle control group,"THP-1; THP-1 xenograft, Mann-Whitney-Wilcoxon U-test",significantly reduced; also recorded: significantly attenuated
same,tolerability,[7],acceptable tolerability profile
